Measured values: the supplement of paper PMC11208160

Test: recombinant barcode read abundance after kanamycin selection (control-corrected) (log10(CPM+1)); higher = more efficient recombination; sequences stand for … in AGTGCAGAGAAAATCGGCCAGTTTTCTCTGCCTGCAGTCCGCATGCCGT…AGATTTATGCAGCGGACTGCCTTTCTCCCAAAGTGATAAACCGGACAGTATCATGGACCGGTTTTCCCGGTAATCCGTATTTGCAAGGTTGGTTTCACT; site = the 11-nt target
Method in brief: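 Reported as log10(CPM+1), each value stands for recombination efficiency. That efficiency is the averaged, control-corrected counts per million of barcodes found at recombinant junctions. Cells from a pooled E. coli library pairing targets with IS621 bridge RNA target-binding loops were plated twice on chloramphenicol/ampicillin LB agar (control) and twice on chloramphenicol/ampicillin/kanamycin with 0.1 mM IPTG.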
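Note: IS621 recombinase and bridge RNA in Escherichia coli cells.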

Row | Sequence | recombinant barcode read abundance (log10)
1 | GAGTGGCCTTGGGTTCTAACCTGTTGCGT (site GAGTGGCCTAG) | 0.227
2 | GAGTGGCCTTGGGTTCTAACCTGTTGCGT (site GAGTGGCCTAT) | 1.32
3 | GAGTTCCCTTGGGTTCTAACCTGTTGCCC (site ATTACTTCTAA) | 0.0963
4 | GAGTTCCCTTGGGTTCTAACCTGTTGCCC (site GAGTTCCCTGG) | 1.54
5 | GAGTTTCCTTGGGTTCTAACCTGTTGCGT (site GAGTTACCTAC) | 0.142
6 | GAGTTTCCTTGGGTTCTAACCTGTTGCGT (site GAGTTCCCTAC) | 0.278
7 | GAGTTTCCTTGGGTTCTAACCTGTTGCGT (site GAGTTGCCTAC) | 0.0725
8 | GAGTTTCCTTGGGTTCTAACCTGTTGCGT (site GAGTTTCCTAC) | 0.791
9 | GATACAGCTTGGGTTCTAACCTGTTGCCT (site GAAACAGCTAG) | 0.0665
10 | GATACAGCTTGGGTTCTAACCTGTTGCCT (site GACACAGCTAG) | 0.444
11 | GATACAGCTTGGGTTCTAACCTGTTGCCT (site GAGACAGCTAG) | 0.155
12 | GATACAGCTTGGGTTCTAACCTGTTGCCT (site GATACAGCTAG) | 1.16
13 | GATACGACTTGGGTTCTAACCTGTTGCCT (site GATACGACTAG) | 1.14
14 | GATACGACTTGGGTTCTAACCTGTTGCCT (site GATACGCCTAG) | 0.748
15 | GATACGACTTGGGTTCTAACCTGTTGCCT (site GATACGGCTAG) | 0.0662
16 | GATACGACTTGGGTTCTAACCTGTTGCCT (site GATACGTCTAG) | 0.00976
17 | GATACTACTTGGGTTCTAACCTGTTGCAG (site GATACTACTCT) | 0.17
18 | GATACTACTTGGGTTCTAACCTGTTGCAG (site GATGCTACTCT) | 0.11
19 | GATAGACCTTGGGTTCTAACCTGTTGCCT (site CATAGACCTAG) | 0.126
20 | GATAGACCTTGGGTTCTAACCTGTTGCCT (site GATAGACCTAG) | 1.57
21 | GATAGCTCTTGGGTTCTAACCTGTTGCCT (site AATAGCTCTAG) | 0.332
22 | GATAGCTCTTGGGTTCTAACCTGTTGCCT (site CATAGCTCTAG) | 0.0838

Row | Sequence | recombinant barcode read abundance (log10)
23 | GATAGCTCTTGGGTTCTAACCTGTTGCCT (site GATAGCTCTAG) | 0.998
24 | GATAGCTCTTGGGTTCTAACCTGTTGCCT (site TATAGCTCTAG) | 0.509
25 | GATAGGGCTTGGGTTCTAACCTGTTGCCT (site GATAGGGCTAG) | 1.09
26 | GATAGGGCTTGGGTTCTAACCTGTTGCCT (site TTATACACTGA) | 0.135
27 | GATCAGCCTTGGGTTCTAACCTGTTGCCT (site GATCAGCCTAG) | 0.445
28 | GATCAGCCTTGGGTTCTAACCTGTTGCCT (site GATCTGCCTAG) | 0.063
29 | GATCCTACTTGGGTTCTAACCTGTTGCCA (site GATCCTACTTG) | 0.315
30 | GATCCTACTTGGGTTCTAACCTGTTGCCA (site GATGCTACTTG) | 0.0449
31 | GATCGAACTTGGGTTCTAACCTGTTGCCT (site AATCGAACTAG) | 0.15
32 | GATCGAACTTGGGTTCTAACCTGTTGCCT (site GATCGAACTAG) | 0.204
33 | GATCGAGCTTGGGTTCTAACCTGTTGCAG (site GATCGAGCTCT) | 1.42
34 | GATCGAGCTTGGGTTCTAACCTGTTGCAG (site TGGACGACTAA) | 0.178
35 | GATCGAGCTTGGGTTCTAACCTGTTGCCT (site GATCGAGCTAG) | 1.12
36 | GATCGAGCTTGGGTTCTAACCTGTTGCCT (site GATCGCGCTAG) | 0
37 | GATCGCGCTTGGGTTCTAACCTGTTGCCT (site GATCGAGCTAG) | 0.133
38 | GATCGCGCTTGGGTTCTAACCTGTTGCCT (site GATCGCGCTAG) | 0.231
39 | GATCTAGCTTGGGTTCTAACCTGTTGCAT (site CATATAGCTAT) | 0.0793
40 | GATCTAGCTTGGGTTCTAACCTGTTGCAT (site GATCTAGCTAT) | 0.574
41 | GATGAGTCTTGGGTTCTAACCTGTTGCTT (site GATGAGTCTAA) | 1.8
42 | GATGAGTCTTGGGTTCTAACCTGTTGCTT (site GATGAGTCTAG) | 1.34
43 | GATGATACTTGGGTTCTAACCTGTTGCGT (site GATGATACTAC) | 2.51
